The target in experiment [1] is T1, Alpha-1B adrenergic receptor (Rattus norvegicus, UniProt P15823).
T1 sequence (P15823 whole entry): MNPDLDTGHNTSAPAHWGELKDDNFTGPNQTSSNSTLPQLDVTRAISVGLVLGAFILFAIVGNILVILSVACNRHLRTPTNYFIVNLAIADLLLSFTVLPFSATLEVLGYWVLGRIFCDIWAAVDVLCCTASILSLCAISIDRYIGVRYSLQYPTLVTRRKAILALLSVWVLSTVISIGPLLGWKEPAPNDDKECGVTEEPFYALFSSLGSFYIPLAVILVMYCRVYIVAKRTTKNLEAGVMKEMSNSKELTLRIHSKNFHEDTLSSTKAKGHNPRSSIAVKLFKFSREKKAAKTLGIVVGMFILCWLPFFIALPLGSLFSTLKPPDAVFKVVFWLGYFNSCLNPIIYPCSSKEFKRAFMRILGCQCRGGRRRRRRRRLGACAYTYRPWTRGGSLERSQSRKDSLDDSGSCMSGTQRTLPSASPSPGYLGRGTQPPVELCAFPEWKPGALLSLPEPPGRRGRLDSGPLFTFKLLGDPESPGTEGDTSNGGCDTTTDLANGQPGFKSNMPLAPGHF
Description: DRUGMATRIX: Alpha-1B adrenergic receptor radioligand binding (ligand: prazosin). The experiment is classed as cell membranes, Wistar, Liver, Membrane. As to conditions: Not Active = under 50% inhibition at 10 µM; for pIC50: read-out: IC50; for pKi: read-out: Ki.

The target in experiment [2] is T2, C-X-C chemokine receptor type 2 (Homo sapiens, UniProt P25025). Also: in other assays of this panel Not Active means under 50% inhibition at 10 µM.
T2 sequence (P25025 whole entry): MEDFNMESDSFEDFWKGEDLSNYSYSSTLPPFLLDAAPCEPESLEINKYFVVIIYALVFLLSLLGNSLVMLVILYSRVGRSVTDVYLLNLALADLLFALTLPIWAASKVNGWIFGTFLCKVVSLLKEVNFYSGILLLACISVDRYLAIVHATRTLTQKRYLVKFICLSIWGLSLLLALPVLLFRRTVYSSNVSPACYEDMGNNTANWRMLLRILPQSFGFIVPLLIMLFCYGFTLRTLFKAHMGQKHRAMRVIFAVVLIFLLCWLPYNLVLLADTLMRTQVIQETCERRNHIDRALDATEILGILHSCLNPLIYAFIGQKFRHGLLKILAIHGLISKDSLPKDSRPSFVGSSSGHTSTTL
The experiment is classed as cell membranes, Membrane. As to conditions: cho-k1.

Experiment [3] in a line: DRUGMATRIX: Leukotriene, BLT (LTB4) radioligand binding (ligand: [3H]LTB4). The class given is cell membranes, Membrane. To be noted: u-937; Not Active = under 50% inhibition at 10 µM.
Experiment [4] deals with T3, Vasoactive intestinal polypeptide receptor 1 (Homo sapiens, UniProt P32241).
T3 sequence (P32241 whole entry): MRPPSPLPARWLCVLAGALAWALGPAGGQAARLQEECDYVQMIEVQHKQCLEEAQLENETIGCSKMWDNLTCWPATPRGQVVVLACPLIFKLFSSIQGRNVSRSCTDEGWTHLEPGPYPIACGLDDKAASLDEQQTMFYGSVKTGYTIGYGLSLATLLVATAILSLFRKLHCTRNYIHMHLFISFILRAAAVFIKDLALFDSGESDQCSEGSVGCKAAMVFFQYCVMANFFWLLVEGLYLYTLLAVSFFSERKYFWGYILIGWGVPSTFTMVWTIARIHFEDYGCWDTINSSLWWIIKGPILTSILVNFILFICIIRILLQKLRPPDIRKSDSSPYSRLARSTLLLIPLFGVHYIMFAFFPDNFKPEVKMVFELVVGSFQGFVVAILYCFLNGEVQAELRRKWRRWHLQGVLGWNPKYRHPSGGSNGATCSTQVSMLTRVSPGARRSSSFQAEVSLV
The experiment is classed as cell membranes, Membrane. To be noted: ht-29.

A further experiment concerns the target Nitric oxide synthase 1 (Rattus norvegicus, UniProt P29476). The experiment is classed as tissue-based, Cerebellum. Also: in other assays of this panel Not Active means under 50% inhibition at 10 µM.
The target of experiment [5] is T4, Cysteinyl leukotriene receptor 1 (Homo sapiens, UniProt Q9Y271). Also: in other assays of this panel Not Active means under 50% inhibition at 10 µM.
T4 sequence (Q9Y271 whole entry): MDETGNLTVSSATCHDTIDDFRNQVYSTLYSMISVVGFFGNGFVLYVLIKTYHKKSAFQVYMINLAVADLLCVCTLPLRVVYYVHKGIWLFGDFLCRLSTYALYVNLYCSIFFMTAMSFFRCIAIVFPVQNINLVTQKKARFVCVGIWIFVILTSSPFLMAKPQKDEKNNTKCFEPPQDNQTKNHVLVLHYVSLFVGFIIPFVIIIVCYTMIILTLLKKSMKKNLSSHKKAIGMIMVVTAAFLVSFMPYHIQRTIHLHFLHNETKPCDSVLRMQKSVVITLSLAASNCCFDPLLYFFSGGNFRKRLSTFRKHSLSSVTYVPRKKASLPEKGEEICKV
The class given is cell membranes, CHO-K1, Membrane. As to conditions: for IC50: cho-k1.

Experiment [6] is described as follows: DRUGMATRIX: Phosphodiesterase PDE4 enzyme inhibition (substrate: [3H]cAMP + cAMP). As to conditions: u-937; Not Active = under 50% inhibition at 10 µM.
In experiment [7] the target is T5, Alpha-1D adrenergic receptor (Homo sapiens, UniProt P25100). Also: in other assays of this panel Not Active means under 50% inhibition at 10 µM.
T5 sequence (P25100 whole entry): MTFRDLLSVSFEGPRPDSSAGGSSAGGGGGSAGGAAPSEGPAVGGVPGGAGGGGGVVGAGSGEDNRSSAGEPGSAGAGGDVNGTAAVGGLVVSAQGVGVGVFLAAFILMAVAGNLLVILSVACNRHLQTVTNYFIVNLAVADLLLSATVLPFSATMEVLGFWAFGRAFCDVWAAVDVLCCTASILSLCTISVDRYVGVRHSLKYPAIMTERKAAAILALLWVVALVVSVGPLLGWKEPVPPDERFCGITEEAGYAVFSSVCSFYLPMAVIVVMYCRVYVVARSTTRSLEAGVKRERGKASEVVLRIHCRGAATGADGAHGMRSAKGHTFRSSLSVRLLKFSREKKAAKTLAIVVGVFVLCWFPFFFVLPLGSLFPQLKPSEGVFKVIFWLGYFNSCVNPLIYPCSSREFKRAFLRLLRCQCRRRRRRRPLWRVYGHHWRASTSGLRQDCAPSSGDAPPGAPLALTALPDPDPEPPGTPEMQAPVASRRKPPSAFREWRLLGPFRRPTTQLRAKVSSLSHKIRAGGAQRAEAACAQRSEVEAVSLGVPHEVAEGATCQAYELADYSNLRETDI
The experiment is classed as cell membranes, HEK293, Membrane. To be noted: for IC50: hek293; for pIC50: read-out: IC50; for pKi: read-out: Ki.

From ChEMBL document CHEMBL1909046, “DrugMatrix in vitro pharmacology data” come the findings set out here.

Molecules are shown by their SMILES. pIC50, pKi: −log10 of the molar value.

The pIC50 is −log10 of the IC50, conventionally taken in molar units. One may read the pKi as the Ki on a negative log10 scale, so that one unit is a factor of ten.

Nitric oxide synthase 1, sequence (P29476 whole entry): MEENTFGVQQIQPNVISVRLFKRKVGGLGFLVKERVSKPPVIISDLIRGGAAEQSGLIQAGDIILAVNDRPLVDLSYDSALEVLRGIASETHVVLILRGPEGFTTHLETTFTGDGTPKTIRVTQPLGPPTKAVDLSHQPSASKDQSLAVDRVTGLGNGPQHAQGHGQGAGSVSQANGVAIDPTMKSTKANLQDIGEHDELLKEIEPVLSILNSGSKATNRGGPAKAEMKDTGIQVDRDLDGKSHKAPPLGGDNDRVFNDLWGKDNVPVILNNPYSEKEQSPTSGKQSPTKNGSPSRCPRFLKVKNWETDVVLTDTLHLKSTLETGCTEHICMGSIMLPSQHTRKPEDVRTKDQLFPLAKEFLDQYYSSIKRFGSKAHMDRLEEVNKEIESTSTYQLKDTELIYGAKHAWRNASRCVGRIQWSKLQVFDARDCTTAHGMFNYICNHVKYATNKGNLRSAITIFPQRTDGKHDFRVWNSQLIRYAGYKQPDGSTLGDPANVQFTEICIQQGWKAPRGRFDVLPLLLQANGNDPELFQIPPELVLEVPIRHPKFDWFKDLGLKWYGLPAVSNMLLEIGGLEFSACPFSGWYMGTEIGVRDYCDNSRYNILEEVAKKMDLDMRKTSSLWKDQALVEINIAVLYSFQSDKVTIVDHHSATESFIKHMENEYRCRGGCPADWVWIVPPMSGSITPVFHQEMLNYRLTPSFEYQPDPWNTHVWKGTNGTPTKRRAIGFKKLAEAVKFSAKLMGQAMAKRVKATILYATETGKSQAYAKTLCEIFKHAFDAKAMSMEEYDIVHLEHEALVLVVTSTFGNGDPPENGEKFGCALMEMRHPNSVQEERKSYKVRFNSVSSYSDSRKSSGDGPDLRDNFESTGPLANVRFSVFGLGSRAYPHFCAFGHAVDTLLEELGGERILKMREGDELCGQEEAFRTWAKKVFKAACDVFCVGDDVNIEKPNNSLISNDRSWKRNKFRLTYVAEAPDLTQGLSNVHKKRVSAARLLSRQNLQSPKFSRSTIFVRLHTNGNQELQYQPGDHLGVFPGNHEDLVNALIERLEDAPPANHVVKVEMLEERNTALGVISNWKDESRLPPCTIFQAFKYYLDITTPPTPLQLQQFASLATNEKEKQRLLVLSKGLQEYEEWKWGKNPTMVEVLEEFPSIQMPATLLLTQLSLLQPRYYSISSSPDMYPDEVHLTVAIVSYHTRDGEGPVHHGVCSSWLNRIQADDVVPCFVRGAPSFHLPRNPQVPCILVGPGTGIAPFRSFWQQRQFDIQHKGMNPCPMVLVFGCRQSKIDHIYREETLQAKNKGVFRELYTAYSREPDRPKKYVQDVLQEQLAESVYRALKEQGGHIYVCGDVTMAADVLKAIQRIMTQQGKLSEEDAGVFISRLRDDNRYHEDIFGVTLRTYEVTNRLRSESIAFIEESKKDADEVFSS

On to `CC1=C(CC(=O)O)c2cc(F)ccc2/C1=C\c1ccc([S+](C)[O-])cc1` (configuration not stated), for which the IC50 entry (in experiment [1]; in experiment [2]; in experiment [3]; in experiment [4]; against Nitric oxide synthase 1; in experiment [5]) was “Not Active” each time. Moreover, the IC50 result in experiment [6] and in experiment [7] was “Not Active” in each case. The Ki entry in experiment [3] and in experiment [6] was “Not Active” throughout.

On to `N[C@H](CSC(=S)NCc1ccccc1)C(=O)O`, for which the IC50 entry (in experiment [1]; in experiment [2]; in experiment [3]; in experiment [4]; on Nitric oxide synthase 1; in experiment [5]) was “Not Active” each time. For the same compound, the IC50 entry in experiment [6] and in experiment [7] was “Not Active” in each case. Also, the Ki entry in experiment [3] and in experiment [6] was “Not Active” each time.

In the case of `CC(=O)N[C@@H]1[C@H](Oc2c3cc4cc2Oc2ccc(cc2Cl)[C@@H](O[C@@H]2O[C@@H](CO)[C@@H](O)[C@H](O)[C@@H]2NC(C)=O)[C@@H]2NC(=O)[C@H](NC(=O)[C@@H]4NC(=O)[C@H]4NC(=O)[C@@H](Cc5ccc(c(Cl)c5)O3)NC(=O)[C@H](N)c3ccc(O)c(c3)Oc3cc(O)cc4c3)c3ccc(O)c(c3)-c3c(O[C@H]4O[C@H](CO)[C@@H](O)[C@@H](O)[C@@H]4O)cc(O)cc3[C@@H](C(=O)O)NC2=O)O[C@@H](CO)[C@@H](O)[C@@H]1O`, the IC50 result (in experiment [1]; in experiment [2]; in experiment [3]; in experiment [4]; against Nitric oxide synthase 1; in experiment [5]) was “Not Active” throughout. In addition, the IC50 result in experiment [6] and in experiment [7] was “Not Active” throughout. Besides, the Ki entry in experiment [3] and in experiment [6] was “Not Active” each time.

With `Clc1ccc2c(c1)C(N1CCNCC1)=Nc1ccccc1O2` [AMOXAPINE], the IC50 result (in experiment [2]; in experiment [4]; at Nitric oxide synthase 1; in experiment [5]) was “Not Active” throughout. Also, in experiment [7], the pIC50 was 6.51. In experiment [7], the negative logarithm of the Ki (pKi) is 6.82.

In the case of `COc1cc2c(c(OC)c1OC)-c1ccc(OC)c(=O)cc1[C@@H](NC(C)=O)CC2` [COLCHICINE], the IC50 result (in experiment [2]; in experiment [4]; against Nitric oxide synthase 1; in experiment [5]; in experiment [7]) was “Not Active” in each case.

As for `CN1CCC(=C2c3ccccc3C=Cc3ccccc32)CC1` [CYPROHEPTADINE], the IC50 result (in experiment [2]; in experiment [4]; on Nitric oxide synthase 1; in experiment [5]) was “Not Active” in each case. Moreover, in experiment [7], the pIC50 was 6.97. Moreover, the pKi in experiment [7] was 7.28.

Consider `CC/C(=C(/CC)c1ccc(O)cc1)c1ccc(O)cc1` [DIETHYLSTILBESTROL], for which the IC50 result (in experiment [2]; in experiment [4]; against Nitric oxide synthase 1) was “Not Active” each time. Further, the results for the pIC50 in experiment [5] (read-out: IC50) and in experiment [7] were 4.75 and 4.97, respectively. The figures for the pKi in experiment [5] (read-out: Ki) and in experiment [7] were 5.05 and 5.27, respectively.

Turning to `CC(=O)N1CCN(c2ccc(OCC3COC(Cn4ccnc4)(c4ccc(Cl)cc4Cl)O3)cc2)CC1` (configuration not stated) [KETOCONAZOLE], in experiment [1], the pIC50 is 4.64. Moreover, the pKi in experiment [1] was 4.90. Besides, the IC50 entry (in experiment [2]; in experiment [3]; in experiment [4]; against Nitric oxide synthase 1; in experiment [5]; in experiment [6]) was “Not Active” throughout. In addition, the IC50 entry in experiment [7] is “Not Active”. In addition, the Ki entry in experiment [3] and in experiment [6] was “Not Active” throughout.

Regarding `C=CCN1CC[C@]23c4c5ccc(O)c4O[C@H]2C(=O)CC[C@@]3(O)[C@H]1C5` [NALOXONE], the IC50 result (in experiment [2]; in experiment [4]; on Nitric oxide synthase 1; in experiment [5]; in experiment [7]) was “Not Active” in each case.

For the compound `COCCOC(=O)C1=C(C)NC(C)=C(C(=O)OC(C)C)C1c1cccc([N+](=O)[O-])c1` (configuration not stated) [NIMODIPINE], the IC50 entry (in experiment [1]; in experiment [2]; in experiment [3]; in experiment [4]; against Nitric oxide synthase 1; in experiment [5]) was “Not Active” in each case. The IC50 result in experiment [6] and in experiment [7] was “Not Active” throughout. The Ki entry in experiment [3] and in experiment [6] was “Not Active” each time.

Turning to `CC(C)NCC(O)COc1cccc2ccccc12` (configuration not stated) [PROPRANOLOL], the IC50 result (in experiment [2]; in experiment [4]; against Nitric oxide synthase 1; in experiment [5]; in experiment [7]) was “Not Active” throughout.

Take `COCCCOc1ccnc(C[S+]([O-])c2nc3ccccc3[nH]2)c1C` (configuration not stated) [RABEPRAZOLE]: the IC50 entry (in experiment [1]; in experiment [2]; in experiment [3]; in experiment [4]; against Nitric oxide synthase 1; in experiment [5]) was “Not Active” in each case. The IC50 result in experiment [6] and in experiment [7] was “Not Active” each time. Further, the Ki entry in experiment [3] and in experiment [6] was “Not Active” throughout.

`O=C(c1ccc(OCCN2CCCCC2)cc1)c1c(-c2ccc(O)cc2)sc2cc(O)ccc12` [RALOXIFENE]: the pIC50 was 5.57 in experiment [1] and 6.01 in experiment [7]. The pKi was 5.83 in experiment [1] and 6.32 in experiment [7]. For the same compound, the IC50 entry (in experiment [2]; in experiment [3]; in experiment [4]; against Nitric oxide synthase 1; in experiment [5]; in experiment [6]) was “Not Active” in each case. Further, the Ki entry in experiment [3] and in experiment [6] was “Not Active” each time.

As for `CNC(=C[N+](=O)[O-])NCCSCc1ccc(CN(C)C)o1` [RANITIDINE], the IC50 entry (in experiment [1]; in experiment [2]; in experiment [3]; in experiment [4]; against Nitric oxide synthase 1; in experiment [5]) was “Not Active” throughout. Further, the IC50 result in experiment [6] and in experiment [7] was “Not Active” throughout. Moreover, the Ki entry in experiment [3] and in experiment [6] was “Not Active” throughout.
